We go through three compounds from patent EP0544958A1, “Cephalosporin compounds and processes for preparing the same” (TANABE SEIYAKU CO., LTD., priority 1991, dated 1993).

Counter-ions that a name gives are not always drawn.

Data set [1] has as its system clinical isolates of MRSA. In words: antibacterial activity (90 % inhibitory concentration) against clinical isolates. In kind it is cell-based, methicillin resistant Staphylococcus aureus (MRSA). Particulars: relative to ceftazidime.
The subject of data set [2] is Staphylococcus epidermidis Kawamura. In words: antimicrobial activity compared with ceftazidime. The data set is classed as cell-based. As to conditions: relative to ceftazidime.
The next data set deals with mice. The data set can be described thus: acute toxicity by intravenous administration. The data set is classed as in vivo. Particulars: dose of 1 g/kg, five mice, within five days after administration. The text has this: Moreover, the desired compounds [I] or pharmaceutically acceptable salts thereof have high absorbability in the living tissue, and the treatment effects thereof last for a long time so that the compounds [I] of the present invention show an excellent defense effect in infectious diseases caused by various microorganisms including Staphylococcus aureus and Pseudomonas aeruginosa. In addition, the desired compounds [I] of the present invention and pharmaceutically acceptable salts thereof have low toxicity and show high safety as medicaments.

Data set [3] has as its system Citrobacter freundii GN346. In words: antimicrobial activity against β-lactamase-producing bacteria compared with ceftazidime. Particulars: relative to ceftazidime. In kind it is cell-based.
The test system of data set [4] is Staphylococcus aureus 209P JC-1. In words: antimicrobial activity compared with ceftazidime. In kind it is cell-based. Particulars: relative to ceftazidime.

In the case of `Cc1c(N)ccc[n+]1CC1=C(C(=O)[O-])N2C(=O)[C@@H](NC(=O)/C(=N\OC(C(=O)O)c3ccc(O)c4[nH]c(=O)ccc34)c3csc(N)n3)[C@H]2SC1` (stereo partly drawn) [Example 27, 7β-{(Z)-2-(2-aminothiazol-4-yl)-2-[(8-hydroxy-2-oxo-1H-quinolin-5-yl)(carboxy)methyloxyimino]acetamido}-3-(3 amino-2-methyl-1-pyridiniomethyl)-3-cephem-4-carboxylic acid sodium salt], in data set [1], the “antibacterial activity (90 % inhibitory concentration), times superior to that of ceftazidime” value is on record as “about 16 times”. Besides, the “antimicrobial activity, times stronger as compared with ceftazidime” value in data set [2] is “more than 16 times”. For the same compound, the “acute toxicity (mice that died)” value in the data set with mice is listed as “none of the five mice”.

With `Nc1nc(/C(=N/OC(C(=O)O)c2ccc(O)c3[nH]c(=O)ccc23)C(=O)N[C@@H]2C(=O)N3C(C(=O)[O-])=C(C[n+]4cccc5ccccc54)CS[C@H]23)cs1` (stereo partly drawn) [Example 3, 7β-{(Z)-2-(2-aminothiazol-4-yl)-2-[(8-hydroxy-2-oxo-1H-quinolin-5-yl)(caboxy)methyloxyimino]acetamido}-3-(1-quinoliniomethyl)-3-cephem-4-carboxylic acid sodium salt], the “antimicrobial activity, times stronger than ceftazidime” value in data set [3] is given as “more than 4 times”. Moreover, in data set [4], the “antimicrobial activity, times stronger as compared with ceftazidime” value is given as “more than 32 times”.

`Nc1nc(/C(=N/OC(C(=O)O)c2ccc(O)c3[nH]c(=O)ccc23)C(=O)N[C@@H]2C(=O)N3C(C(=O)[O-])=C(C[n+]4ccccc4)CS[C@H]23)cs1` (stereo partly drawn) [Example 4, 7β-{(Z)-2-(2-aminothiazol-4-yl)-2-[(8-hydroxy-2-oxo-1H-quinolin-5-yl)(carboxy)methyloxyimino]acetamido}-3-(1-pyridiniomethyl)-3-cephem-4-carboxylic acid sodium salt]: in data set [3], the “antimicrobial activity, times stronger than ceftazidime” value is given as “more than 4 times”. The “antimicrobial activity, times stronger as compared with ceftazidime” value in data set [2] is recorded as “more than 16 times”.
